US4992418A, “Superactive human insulin analogue-[10-Aspartic Acid-B]Human Insulin” (Mount Sinai School of Medicine, priority 1987, dated 1991)

Assays:
[1] = biological target: insulin receptors (Rattus norvegicus, UniProt P15127); assay: Standard in vitro assays measuring relative insulin potency (summary statements); conditions: in vitro experiments of the Examples
[2] = system: Guinea pig antiserum to porcine insulin; conditions: relative to bovine or porcine insulin
Procedure: Guinea pig antiserum to porcine insulin and goat anti-guinea pig-γ globulin were used at a 1:25 dilution in assay buffer (sodium phosphate, 0.04M, pH 7.6, containing 0.154M NaCl, 0.1% gelatin, and 0.01% thimerosal). […] After incubation at room temperature overnight, 0.2 ml of the precipitating antibody (goat anti-guinea pig-γ globulin) was added, and the tubes were further incubated overnight at room temperature. Immune precipitates were collected on cellulose-acetate filters and washed with two successive 1.0 mL portions of ice-cold assay buffer. Filters were dried and radioactivity was counted in a scintillation counter in Filtron-X®. Straight-line plots of Co /Ci were constructed by linear regression analysis as described by Hales et al., Biochem. J. (1963), vol.

[3] = system: rat adipocytes
Procedure: The assays measured the ability of the insulin analogue as compared to bovine insulin to convert, [3-^3 H] glucose into lipids.
Adipocytes were prepared by incubating epididymal and perirenal fat pads obtained from male rats weighing 200-300 g with 1.0 mg/ml collagenase for 60 min at 37° C., followed by filtration through gauze and then through fine-mesh silk. Cells were washed twice by flotation in a clinical centrifuge before suspension for use. The incubation medium was Krebs-Ringer bicarbonate containing half the recommended calcium, 0.5 mM glucose, and 3% fatty acid free bovine serum albumin, with 95% O2 -5% CO2 as the gas phase. […] Cells were preincubated for 45 min at 37° C. before the addition of [3-^3 H] glucose. Incubation was continued for 60 min and stopped by the addition of 0.2 ml of 5N H2 SO4 and 0.2 ml of corn oil to aid in the extraction of lipids. Samples were extracted with 10 ml of Soluscint-0® for 30 min at room temperature before counting the radioactivity in a scintillation counter. […] Zero and 100% stimulation of lipogenesis were defined as radioactivity observed in the absence and presence, respectively, of 9.1×10^-10 M insulin (5.5 ng/ml).
Stimulation, expressed as percent of maximum, was plotted as a function of the agonist concentration. […]

[4] = biological target: T1, insulin receptors in rat liver plasma membranes (Rattus norvegicus, UniProt P15127); assay: Insulin receptor binding assay (125I-insulin displacement, rat liver plasma membranes)
T1 construct: Rat liver plasma membranes were prepared as described by Horvat et al; from tissue; host or cells: rat liver plasma membranes
Procedure: Receptor binding assays using rat liver plasma membranes were performed as described by Kitagawa et al., Biochemistry (1984), vol. 23, pp. 1405-1413. Rat liver plasma membranes were prepared as described by Horvat et al., Biochim. Biophys. Acta (1975), vol. 382, pp. 609-620.
Following incubation for 45 min at 24° C., the mixtures were diluted with 2.0 ml of ice cold 0.1M sodium phosphate, pH 7.4, containing 0.1% fraction V bovine serum albumin and immediately filtered through cellulose-acetate filters. The filters were washed twice with the ice cold buffer, dried, and then radioactivity was counted in a scintillation counter using Filtron-X®. Nonspecific binding, defined as radioactivity remaining on the filters when the incubations contained 1×10^-5 M unlabeled insulin, was subtracted from all values.
The data points shown in FIG. 3 represent the mean of triplicate determinations in a representative assay which was performed four times. The maximum binding in these assays amounted to 8.2% of the input radioactivity.

T1 sequence (P15127 27-759 limits assumed): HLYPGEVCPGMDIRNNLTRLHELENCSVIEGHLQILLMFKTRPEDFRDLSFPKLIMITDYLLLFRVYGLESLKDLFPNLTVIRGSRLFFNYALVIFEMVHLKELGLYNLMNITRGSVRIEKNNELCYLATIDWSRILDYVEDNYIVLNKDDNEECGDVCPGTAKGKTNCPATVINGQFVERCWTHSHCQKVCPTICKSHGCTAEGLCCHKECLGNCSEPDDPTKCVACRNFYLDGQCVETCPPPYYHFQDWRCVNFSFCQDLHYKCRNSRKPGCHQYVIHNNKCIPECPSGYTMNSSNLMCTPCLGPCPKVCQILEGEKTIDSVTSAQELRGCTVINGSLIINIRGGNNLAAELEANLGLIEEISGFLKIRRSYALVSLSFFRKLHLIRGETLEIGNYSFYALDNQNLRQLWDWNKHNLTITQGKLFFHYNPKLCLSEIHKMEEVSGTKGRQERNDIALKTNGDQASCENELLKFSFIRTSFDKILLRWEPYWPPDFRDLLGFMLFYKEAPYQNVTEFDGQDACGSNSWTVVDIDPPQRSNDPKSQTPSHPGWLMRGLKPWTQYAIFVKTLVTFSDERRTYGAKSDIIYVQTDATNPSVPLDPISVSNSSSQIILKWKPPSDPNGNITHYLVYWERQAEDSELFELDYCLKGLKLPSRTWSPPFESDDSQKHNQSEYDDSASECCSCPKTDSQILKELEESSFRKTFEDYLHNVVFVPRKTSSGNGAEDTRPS
T1 sequence (P15127 764-1383 partner limits assumed): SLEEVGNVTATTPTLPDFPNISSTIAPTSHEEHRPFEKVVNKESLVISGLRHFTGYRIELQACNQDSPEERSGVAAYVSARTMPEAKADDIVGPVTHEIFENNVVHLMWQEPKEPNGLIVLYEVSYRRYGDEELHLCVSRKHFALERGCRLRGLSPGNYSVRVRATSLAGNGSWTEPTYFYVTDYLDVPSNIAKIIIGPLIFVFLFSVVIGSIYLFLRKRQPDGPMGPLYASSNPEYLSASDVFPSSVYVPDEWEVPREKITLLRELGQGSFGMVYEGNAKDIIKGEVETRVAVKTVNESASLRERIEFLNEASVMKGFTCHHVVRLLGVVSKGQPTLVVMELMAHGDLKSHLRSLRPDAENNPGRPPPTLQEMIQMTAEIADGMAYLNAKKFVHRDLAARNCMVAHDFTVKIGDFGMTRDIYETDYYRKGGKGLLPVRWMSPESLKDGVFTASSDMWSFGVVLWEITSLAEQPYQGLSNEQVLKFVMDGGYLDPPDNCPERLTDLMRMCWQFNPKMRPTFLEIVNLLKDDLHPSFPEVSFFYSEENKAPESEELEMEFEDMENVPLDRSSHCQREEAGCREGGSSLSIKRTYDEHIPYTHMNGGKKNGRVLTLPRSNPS
Chain of insulin receptors (P15127 27-759 limits assumed): as the sequence (P15127 27-759 limits assumed) above
Chain of insulin receptors (P15127 764-1383 partner limits assumed): as the sequence (P15127 764-1383 partner limits assumed) above

In vitro activity relative to natural insulin (in words) [1]: several fold more active
Shape of dose response curves in receptor binding ([4]; compared with bovine insulin, FIG. 3): essentially parallel
Binding to the insulin receptor relative to natural insulins ([4]; more tightly than natural insulins): about five
Relative potency: concentration ratio required to inhibit 50% of specific 125I-insulin binding ([4]; relative to bovine insulin, rat liver plasma membranes, assay performed four times): about 534±146%
Substance: [10-Aspartic acid-B] human insulin
Potency in radioimmunoassay (ratio of slopes of Co/Ci plots) [2]: approximately equal potency
Agonist character / maximum stimulation of lipogenesis ([3]; compared with natural bovine insulin, FIG. 4): full agonist
Relative potency: concentration ratio required to produce 50% of maximum stimulation of lipogenesis ([3]; relative to bovine insulin, isolated rat adipocytes, assays performed four times): 435±144%
